Patent publication US20090233917A1, “Stroke recovery” (priority 2006, published 2009)

Experiments:
[1] = system: transient global cerebral ischemia in gerbils; assay: Neuroprotection from transient global cerebral ischemia in gerbils; format: in vivo, Mongolian gerbils; conditions: 50 mg/kg intraperitoneally prior to surgery; two experiments
Description: Adult male Mongolian gerbils weighing 60-80 g were intraperitoneally administered 50 mg/kg of Compound 2 prior to surgery to induce transient global cerebral ischemia. The gerbils were operated under anesthesia with 2% halthane in a gas mixture of 70% N2O and 30% O2, followed by maintenance at 1% halothane to surgically expose and clamp the carotid arteries for 5 minutes to prevent the blood flow to the brain. After 5 minutes, the clamps were removed and reperfusion occurred. The gerbils were evaluated for motility and spontaneous alteration in a Y maze test essentially as described in Gupta and Sharma, Biol. Pharm. Bull. 29(5) 957-961 (2006), and were decapitated 4 days after reperfusion for histological evaluation for the neuronal survival in the hippocampal CA-1 area.

[2] = system: mice under cytotoxic hypoxia; conditions: mouse, in vivo
[3] = system: bacterial reverse mutation; assay: Standard bacterial reverse mutation assays
[4] = system: cardiac ischemia/reperfusion in rats; assay: Experimental cardiac ischemia/reperfusion in rats; format: in vivo; conditions: administered prior to ischemia/reperfusion
in vivo = conditions: mouse
[5] = system: permanent middle cerebral artery occlusion (MCAO) in rats; assay: Functional recovery following permanent MCAO in rats (Example 1); format: in vivo, Sprague Dawley Rats; conditions: for Infarct Volume (%): day 28 after permanent MCAO, percentage of intact contralateral hemispheric volume, mean ± S.E.M.
Excerpt: The purpose of this study was to evaluate the efficacy of arimoclomol and iroxanadine in enhancing neurological recovery in a model of permanent middle cerebral artery occlusion (MCAO) in rats. The permanent MCAO is a well accepted and considered to be a standard animal model for studying clinical aspects of stroke. (Stroke. 1999; 30:2752-2758.)
Forty male Sprague Dawley Rats, each weighing 300-400 g, which had been housed and handled for behavioral assessment for seven (7) days prior to surgery for acclimation purposes, were operated under anesthesia to create focal cerebral infarcts by permanent occlusion of the proximal right middle cerebral artery (MCA) according to modified Tamura model. Briefly, the rats were anesthetized with 2-3% halothane in the mixture of N2O:O2 (2:1), and were maintained with 1˜1.5% halothane in the mixture of N2O:O2 (2:1). The temporalis muscle was bisected and reflected through an incision made midway between the eye and the eardrum canal. The proximal MCA was exposed through a subtemporal craniectomy without removing the zygomatic arch and without transecting the facial nerve. […] Body temperature was maintained at 37.5° C.±0.5° C. throughout the entire procedure. Cefazolin (40 mg/kg; Baxter, Lot 06014.1, Exp. January 2009) was given i.p. one day before MCAO and just after MCAO to prevent infections.
The rats were randomly divided into 4 groups of 10 animals each. One group was given arimoclomol, p.o., starting at one hour after the occlusion at 200 mg/kg/d once daily for 3 days, then 50 mg/kg/d once daily for a total of 29 days. The second group was given iroxanadine using the same dosing regimen as for arimoclomol. The third group is a positive control group and is given intracistemally 1 μg (at 20 μg/ml, also containing 100 μg/ml of bovine serum albumin) beta-fibroblast growth factor (bFGF) one hour and one day (i.e. two administrations) after the occlusion. The fourth group is a negative control with administration of the vehicle only.
Animals were evaluated preoperation (day −1), then every 7 days after the operation (7, 14, 21, and 28 days) by forelimb and hindlimb placing tests and body swing test, which are widely accepted as standard tests indicative of functional recovery after a stroke model.
For the forelimb placing test, the examiner held the rat close to a tabletop and scored the rat's ability to place the forelimb on the tabletop in response to whisker, visual, tactile, or proprioceptive stimulation. Similarly, for the hindlimb placing test, the examiner assessed the rat's ability to place the hindlimb on the tabletop in response to tactile and proprioceptive stimulation. Separate sub-scores were obtained for each mode of sensory input (halfpoint designations possible), and added to give total scores (for the forelimb placing test: 0=normal, 12=maximally impaired; for the hindlimb placing test: 0=normal; 6=maximally impaired).
For the body swing test, the rat was held approximately one inch from the base of its tail. It was then elevated to an inch above a surface of a table. The rat was held in the vertical axis, defined as no more than […] to either the left or the right side. A swing was recorded whenever the rat moved its head out of the vertical axis to either side. The rat must return to the vertical position for the next swing to be counted. Thirty (30) total swings were counted. A normal rat typically has an equal number of swings to either side. Following focal ischemia, the rat tends to swing to the contralateral (left) side.
The behavior was evaluated by giving the score ranging in the parentheses after each test: • Forelimb placing test (0-12), consisting of whisker tactile placing (0-2); visual placing (forward, sideways) (0-4); tactile placing (dorsal, lateral) (0-4); and proprioceptive placing (0-2); • Hindlimb placing test (0-6), consisting of tactile placing (dorsal, lateral) (0-4); and proprioceptive placing (0-2). […]

[6] = treatment from 1 h after occlusion, up to 28 days

Compound	neuroprotection (motility, Y maze, neuronal survival in hippocampal CA-1) compared to control group [1]	survival time under cytotoxic hypoxia [2]	mutagenicity [3]	duration of ventricular arrhythmias [4]	overall survival [4]	LD50 (in vivo)	Infarct Volume (%) [5]	Body Swing Test, recovery compared to vehicle group [5, 6]	Forelimb Placing Test, recovery compared to vehicle group [5, 6]	Hindlimb Placing Test, recovery compared to vehicle group [5, 6]
CC(C)(C)NCC(O)CO/N=C(\Cl)c1cccc(C(F)(F)F)c1 (centres unmarked) [Compound 2, N-[3-(1,1-dimethylethyl)amino-2-hydroxypropoxy]-3-trifluoromethylbenzene-carboximidoyl chloride]	neuroprotective effects	significantly increased	not to be mutagenic	significantly decreased	increased	~1000 mg/kg				
c1cncc(C2=NOCC(CN3CCCCC3)N2)c1 (centres unmarked) [iroxanadine, 5,6-dihydro-5(1-piperidinyl)-methyl-3-(3-pyridyl)-4H-1,2,4-oxadiazine]							21.8 ± 2.1%			
bFGF: positive control, beta-fibroblast growth factor (bFGF) given intracisternally							23.1 ± 1.7%	superior to the vehicle group	superior to the vehicle group	superior to the vehicle group
